Source: patent publication US20190048052A1, “ANTI-MICROBIAL PEPTIDES AND COATINGS” (Board of Regents of the University of Nebraska, priority 2016, published 2019)
Values after ≈ are worked out from the molar mass of the structure shown. Where two headings read alike, the source gives them in different places. Non-standard residues stand in square brackets, D forms with d. Residues, ends and D or L forms follow the SMILES beside them. Bip = N[C@@H](Cc1ccc(-c2ccccc2)cc1)C(=O)O

How the values were obtained:
S. aureus USA300 LAC = assay type: cell-based, Staphylococcus aureus
Experimental: (§1) Bacterial strains used in this study included Enterococcus faecium ATCC51559, Staphylococcus aureus USA300 LAC, Klebsiella pneumoniae ATCC 13883, Acinetobacter baumannii B2367-12, Pseudomonas aeruginosa PAO1, Enterobacter cloacae B2366-12 and Escherichia coli ATCC 25922, wherein the first six constituting the ESKAPE pathogens. Tryptic soy broth (TSB) for bacterial growth was obtained from BD Bioscience (Sparks, Md.).
(§2) The antibacterial activity of peptides was evaluated using a standard broth microdilution protocol as described (Wang et al. (2012) Antimicrob. Agents Chemother., 56:845-856). In brief, 5 μl of each bacterium (stored at −80° C.) were inoculated into TSB medium (2 ml) and grown overnight. A second inoculation was made in the morning by delivering 10 μl of the overnight culture to a fresh TSB medium. After 2-3 hours growth at 37° C., 225 rpm, logarithmic phase bacterial cultures (OD600≈0.5) were diluted and partitioned into a 96-well polystyrene microplate with ˜10^5 colony forming units (CFU) per well (90 μl aliquots). After treatment with 10 μl of peptide solutions at various concentrations, microplates were incubated at 37° C. overnight and read on a ChroMate® 4300 Microplate Reader at 630 nm (GMI, Ramsey, Minn.). The medium was used as a blank where no bacteria should grow.

A. baumannii B2367-12 = assay type: cell-based, Acinetobacter baumannii
Experimental: as §1, §2

E. coli ATCC 25922 = assay type: cell-based, Escherichia coli
Experimental: as §1, §2

E. faecium ATCC51559 = assay type: cell-based, Enterococcus faecium
Experimental: as §1, §2

E. cloacae B2366-12 = assay type: cell-based, Enterobacter cloacae
Experimental: as §1, §2

P. aeruginosa PAO1 = assay type: cell-based, Pseudomonas aeruginosa
Experimental: as §1, §2

B. subtilis 168 = assay type: cell-based, Bacillus subtilis
Experimental: (§3) The bacterial strains used here included Gram-positive bacteria Staphylococcus aureus USA300 LAC, Staphylococcus epidermidis 1457, Bacillus subtilis 168, and Gram-negative Escherichia coli K12. Clinical strains of S. aureus, including Mu50, UAMS-1 and Newman, were also evaluated.
(§4) The antimicrobial activity of peptides was evaluated using a standard broth microdilution protocol (Wang, G. (2008) J. Biol. Chem., 283:32637-32643). In brief, exponential phase bacteria at 10^6 CFU were incubated with serially diluted peptides overnight for ˜20 hours at 37° C. The plates were read on a ChroMate® 4300 Microplate Reader at 630 nm (GMI, Ramsey, Minn.). […] In addition, the effects of human serum (up to 10%), pH (6.8, 7.4 and 8.0) and 150 mM sodium chloride (NaCl) on MICs against S. aureus USA300 were also evaluated (Mishra et al. (2015) RSC Advances 5:59758-59769).

MTS cytotoxicity assay [1] = assay type: cell-based; conditions: human, HeLa CCL-2 cells
Experimental: (§5) HeLa CCL-2 epithelial adenocarcinoma cells from American Type Culture Collection (ATCC) were maintained in DMEM high glucose media with 4 mM L-glutamine (NyClone) and 100 U/mL penicillin, 100 μg/mL streptomycin (pen/strep) (Life Technologies), and 10% (v/v) inactivated fetal bovine serum (FBS) (NyClone). Cells were grown in 5% CO2 at 37° C. and were detached from the culturing dish at 80% confluency using 0.025% trypsin-EDTA (NyClone) treatment. Peptide influence on the cell viability was estimated by using the MTS assay according to the manufacturer's protocol (MTS, CellTiter96® AQ One Solution Cell Proliferation Assay, Promega) with minor modifications and as described elsewhere (Mishra et al. (2015) RSC Advances 5:59758-59769). In short, cells were cultured in flat bottomed 96 well microtiter plates (Corning Life Science) at a seeding density of 20,000 cells/well. At confluence ˜100% achieved after 20-24 hours of cultivation, the cells were washed twice with 100 μL Dulbecco's Phosphate Buffered Saline (Life Technologies). Further, 90 μL of DMEM media with 10% FBS, pen/step was added before exposure to 10 μL of the peptide solution in the concentration range 12.5-100 μM. Plates were incubated at 37° C. After 1 hour, 10 μL MTS, CellTiter96® was added. Plates were further incubated for another 2 hours at 37° C. and finally, the absorbance was measured on ChroMate® reader (Awareness Technology) at 492 nm. Culture medium and 0.2% SDS were used as negative and positive controls, respectively.

Hemolytic assay = assay type: cell-based; conditions: red blood cells, hemolysis
Experimental: Hemolytic analysis of selected peptides was performed using an established protocol (Mishra et al. (2015) RSC Advances 5:59758-59769). Briefly, human blood cells (UNMC Blood Bank) were washed three times with phosphate buffer saline (PBS) and diluted to a 2% solution. After peptide treatment, incubation at 37° C. for one hour, and centrifugation at 13,000 rpm, aliquots of the supernatant were transferred to a fresh 96-well microplate. To assess peptide cytotoxicity, the amount of hemoglobin released was measured at 545 nm. The percent lysis was calculated by assuming 100% release when human blood cells were treated with 1% TRITON™ X-100, and 0% release when incubated with PBS buffer. The hemolytic assays using chicken, bovine, and porcine blood cells (Lampire Biological Laboratories, Inc.) were performed in the same manner.

MTS cytotoxicity assay [2] = assay type: cell-based; conditions: human
Experimental: as §5
Human skin HaCaT (immortalized keratinocyte from AddexBio, T0020001) and kidney HEK293 cells were also cultivated for cytotoxicity evaluation of the peptides in a similar manner.

E. coli K12 = assay type: cell-based, Escherichia coli; conditions: K12
Experimental: as §3, §4

C. tropicalis ATCC 13803 = assay type: cell-based, Candida tropicalis; conditions: ATCC 13803, 48 h
Experimental: (§6) Fungal strains used in this study include Candida albicans ATCC 10231, C. glabrata ATCC 2001 and C. tropicalis ATCC 13803. The fungi were grown in Remel Dex broth (Thermo Fisher Scientific, KS). Antifungal assays were conducted essentially as described for antibacterial assays above, except for a higher starting density at an OD600 0.02 and a longer incubation time of ˜48 hours prior to microplate reading (Mishra et al. (2015) RSC Advances 5:59758-59769).

S. epidermidis 1457 = assay type: cell-based, Staphylococcus epidermidis
Experimental: as §3, §4

S. aureus USA300 [3] = assay type: cell-based, Staphylococcus aureus; conditions: USA300
Experimental: The minimal bactericidal concentration (MBC) was determined by plating 50 μl of the content in the clear wells of the above MIC assays. MBC was determined on the petri dishes without bacterial colony formation after overnight growth (Wang et al. (2012) Biochemistry 51:653-664).

[4] = system: Candida albicans ATCC 10231; assay type: cell-based; conditions: ATCC 10231, 48 h
Experimental: as §6

C. glabrata ATCC 2001 = assay type: cell-based, Candida glabrata; conditions: ATCC 2001, 48 h
Experimental: as §6

S. aureus Newman = assay type: cell-based, Staphylococcus aureus
Experimental: as §3, §4

S. aureus Mu50 = assay type: cell-based, Staphylococcus aureus
Experimental: as §3, §4

S. aureus USA300 [5] = assay type: cell-based, Staphylococcus aureus
Experimental: as §3, §4

S. aureus UAMS-1 = assay type: cell-based, Staphylococcus aureus
Experimental: as §3, §4

## CC[C@H](C)[C@H](NC(=O)[C@H](CCCNC(=N)N)NC(=O)[C@H](CCC(N)=O)NC(=O)[C@@H](NC(=O)[C@@H](NC(=O)[C@H](CCCNC(=N)N)NC(=O)[C@H](CCCCN)NC(=O)[C@H](Cc1ccccc1)NC(=O)[C@@H](N)CS)[C@@H](C)CC)C(C)C)C(=O)N[C@@H](CCCCN)C(=O)N[C@@H](CC(=O)O)C(=O)N[C@@H](Cc1ccccc1)C(=O)N[C@@H](CC(C)C)C(=O)N[C@@H](CCCNC(=N)N)C(=O)N[C@@H](CC(N)=O)C(=O)N[C@@H](CC(C)C)C(=O)N[C@H](C(N)=O)C(C)C [CysFK-16] (H-CFKRIVQRIKDFLRNLV-NH2; N-terminus and C-terminus assumed)
S. aureus USA300 LAC
  MIC SA: 18 µM (≈ 38.7 µg/mL)
A. baumannii B2367-12
  MIC AB: 25 µM (≈ 53.7 µg/mL)
E. coli ATCC 25922
  MIC EC: > 50 µM
E. faecium ATCC51559
  MIC EF: 6.25 µM (≈ 13.4 µg/mL)
E. cloacae B2366-12
  MIC ECl: > 50 µM
P. aeruginosa PAO1
  MIC PA: > 50 µM

## CC(C)C[C@H](NC(=O)[C@H](CC(N)=O)NC(=O)[C@H](CCCNC(=N)N)NC(=O)[C@@H](CC(C)C)NC(=O)[C@H](Cc1ccc(-c2ccccc2)cc1)NC(=O)[C@H](CC(=O)O)NC(=O)[C@H](CCCCN)NC(=O)[C@@H](CC(C)C)NC(=O)[C@H](CCCNC(=N)N)NC(=O)[C@H](CCC(N)=O)NC(=O)[C@@H](NC(=O)[C@@H](CC(C)C)NC(=O)[C@H](CCCNC(=N)N)NC(=O)[C@H](CCCCN)NC(=O)[C@H](Cc1ccc(-c2ccccc2)cc1)NC(=O)CN)C(C)C)C(=O)N[C@H](C(N)=O)C(C)C [Merecidin, reference compound] (H-G[Bip]KR[dL]VQR[dL]KD[Bip][dL]RNLV-NH2; N-terminus and C-terminus assumed)
S. aureus USA300 LAC; USA300
  MIC SA: 3.1 ± 0 µM (≈ 6.99 µg/mL)
A. baumannii B2367-12; B2367-12
  MIC AB: 3.1 ± 0 µM (≈ 6.99 µg/mL)
E. coli ATCC 25922; ATCC 25922
  MIC EC: 3.1 ± 0 µM (≈ 6.99 µg/mL)
E. faecium ATCC51559; ATCC51559
  MIC EF: ≤3.1 µM
E. cloacae B2366-12; B2366-12
  MIC ECl: 6.25 ± 0 µM (≈ 14.1 µg/mL)
P. aeruginosa PAO1; PAO1
  MIC PA: 6.25 ± 0 µM (≈ 14.1 µg/mL)

## CC[C@H](C)[C@H](NC(=O)[C@H](CCCNC(=N)N)NC(=O)[C@H](CCCCN)NC(=O)[C@H](CC(C)C)NC(=O)[C@H](Cc1c[nH]c2ccccc12)NC(=O)[C@H](Cc1c[nH]c2ccccc12)NC(=O)[C@@H](N)Cc1c[nH]c2ccccc12)C(=O)N[C@@H](Cc1c[nH]c2ccccc12)C(N)=O [TetraF2W-KR, WWWLKRIW] (H-WWWLKRIW-NH2; N-terminus and C-terminus assumed)
B. subtilis 168
  MIC B. subtilis 168: 6.2 µM (≈ 7.89 µg/mL)
MTS cytotoxicity assay [1]
  CC50 at 1 hour: 100 µM
Hemolytic assay; chicken, read-out: LC50 Chicken RBCs
  CC50 at 1 hour: 35 µM
Hemolytic assay; human, read-out: LC50 Human RBCs
  CC50 at 1 hour: 30 µM
Hemolytic assay; pig, read-out: LC50 Porcine RBCs
  CC50 at 1 hour: 50 µM
MTS cytotoxicity assay [2]; HEK293 cells
  CC50 at 1 hour: 55 µM
MTS cytotoxicity assay [2]; HaCaT cells
  CC50 at 1 hour: 60 µM
E. coli K12
  MIC E. coli K12: 12.5 to 25 µM
C. tropicalis ATCC 13803
  MIC Candida tropicalis: 3.1 to 6.2 µM
S. epidermidis 1457
  MIC S. epidermidis 1457: 12.5 µM (≈ 15.9 µg/mL)
S. aureus USA300 [3]
  MBC S. aureus USA300: 12.5 µM (≈ 15.9 µg/mL)
[4]
  MIC Candida albicans: 12.5 µM (≈ 15.9 µg/mL)
C. glabrata ATCC 2001
  MIC Candida glabrata: 12.5 µM (≈ 15.9 µg/mL)
S. aureus Newman
  Antimicrobial activity (MIC) Newman: 3.1 to 6.2 µM
S. aureus Mu50
  Antimicrobial activity (MIC) Mu50: 6.2 µM
S. aureus USA300 [5]; S. aureus USA300
  change in MIC on drop of pH from 8 to 6.8: two-fold
S. aureus USA300 [5]; USA300
  Antimicrobial activity (MIC) 150 mM NaCl: 3.1 µM
  Antimicrobial activity (MIC) USA300: 3.1 µM
  MIC S. aureus USA300: 3.1 µM (≈ 3.94 µg/mL)
S. aureus USA300 [5]; USA300, pH 6.8
  Antimicrobial activity (MIC) pH 6.8: 6.2 μM
S. aureus USA300 [5]; USA300, pH 7.4
  Antimicrobial activity (MIC) Normal medium (pH 7.4): 3.1 μM
S. aureus USA300 [5]; USA300, pH 8
  Antimicrobial activity (MIC) pH 8: 3.1 μM
S. aureus UAMS-1
  Antimicrobial activity (MIC) UAMS-1: 6.2 µM
